Reference: patent US11091591B2, “Carbohydrate ligands that bind to antibodies against glycoepitopes of glycosphingolipids” (UNIVERSITÄT BASEL, priority 2015, dated 2021)
Entries after “also recorded” stand apart in the source; their conditions may differ.

Legend:
[1] = target: anti-GD1b IgG antibodies of neuropathy patient serum; test: Competitive binding ELISA (GanglioCombi), GD1b-coated wells, patient serum IgG; set-up: species or system human; details: serum P22 (IgG), dilution 1:50; table prints GD1a (IgG)
Method: (§1) The synthesized carbohydrate polymers 6 (GM1a epitope), 26 (GD1b epitope), and 34 (GT1a epitope) were tested in the GanglioCombi(-Light) ELISA and/or, in case of compound 6, the anti-GM1 ELISA (all kits from Bühlmann Laboratories, Schönenbuch, Switzerland). The 96 well microtiter plates coated with purified gangliosides from bovine cauda equina were washed two times with washing buffer (300 μl/well) before adding the carbohydrate polymers in eight different concentrations, 25 μl/well. The patient sera containing anti-ganglioside IgG or IgM antibodies were added in the appropriate dilutions, 25 μl/well (2× concentrated), to obtain a total of 50 μl volume per well. […] Finally, a stop solution (0.25 M sulfuric acid) was added (100 μl/well) and the degree of colorimetric reaction was determined by absorption measurement at 450 nm with a microplate reader (Spectramax 190, Molecular Devices, California, USA).
(§2) As indicated, the synthesized carbohydrate polymers 6 (GM1a epitope), 26 (GD1b epitope), and 34 (GT1a epitope) were tested in the GanglioCombi(-Light) ELISA and/or, in case of compound 6, the anti-GM1 ELISA (all kits from Bühlmann Laboratories, Schönenbuch, Switzerland). […] After a washing step ganglioside-bound antibodies (IgM/IgG) were detected with horseradish peroxidase labeled anti-human IgM or anti-human IgG antibodies, followed by a colorimetric reaction. […]

[2] = test system: anti-GM1a IgM antibodies of neuropathy patient sera; test: Competitive binding ELISA (GanglioCombi/anti-GM1), GM1a-coated wells, patient sera IgM; set-up: species or system human
Method: as §1, §2

[3] = test system: anti-GM1a IgG antibodies of neuropathy patient sera; test: Competitive binding ELISA (GanglioCombi/anti-GM1), GM1a-coated wells, patient sera IgG; set-up: species or system human
Method: as §1, §2

[4] = test system: anti-GQ1b IgG antibodies of neuropathy patient sera; test: Competitive binding ELISA (GanglioCombi), GQ1b-coated wells, patient sera IgG; set-up: species or system human
Method: The synthesized carbohydrate polymers 6 (GM1a epitope), 26 (GD1b epitope), and 34 (GT1a epitope) were tested in the GanglioCombi(-Light) ELISA and/or, in case of compound 6, the anti-GM1 ELISA (all kits from Bühlmann Laboratories, Schönenbuch, Switzerland). The 96 well microtiter plates coated with purified gangliosides from bovine cauda equina were washed two times with washing buffer (300 μl/well) before adding the carbohydrate polymers in eight different concentrations, 25 μl/well. The patient sera containing anti-ganglioside IgG or IgM antibodies were added in the appropriate dilutions, 25 μl/well (2× concentrated), to obtain a total of 50 μl volume per well. The plate was covered with a plate sealer and incubated for 2 h at 4-8° C. The wells were washed three times with wash buffer (300 μl/well) before either the anti-human IgM antibody-horseradish peroxidase conjugate or the anti-human IgG antibody-horseradish peroxidase conjugate was added (100 μl/well). The plate was incubated for 2 h at 4-8° C. […] Finally, a stop solution (0.25 M sulfuric acid) was added (100 μl/well) and the degree of colorimetric reaction was determined by absorption measurement at 450 nm with a microplate reader (Spectramax 190, Molecular Devices, California, USA).
As indicated, the synthesized carbohydrate polymers 6 (GM1a epitope), 26 (GD1b epitope), and 34 (GT1a epitope) were tested in the GanglioCombi(-Light) ELISA and/or, in case of compound 6, the anti-GM1 ELISA (all kits from Bühlmann Laboratories, Schönenbuch, Switzerland). […] After a washing step ganglioside-bound antibodies (IgM/IgG) were detected with horseradish peroxidase labeled anti-human IgM or anti-human IgG antibodies, followed by a colorimetric reaction. Successful competition of the compounds with gangliosides led to a decrease in measured OD450 nm, (optical density), because they block the binding sites of anti-ganglioside antibodies, preventing their binding to immobilized gangliosides. […] IgG and IgM antibody titers were determined for each serum in preliminary experiments. […]

[5] = test system: mouse monoclonal anti-HNK-1 (anti-MAG) IgM antibody; test: Competitive binding anti-MAG ELISA, MAG-coated wells
Method: (§3) The synthesized carbohydrate polymer 86 (HNK-1 epitope mimetic 58) was tested in the anti-MAG ELISA (kit from Bühlmann Laboratories, Schönenbuch, Switzerland). The assay protocol was performed according to the one described above for the GanglioCombi(-Light) ELISA. To determine the in vitro IC50 of polymer 86, the assay was performed with co-incubation of polymer (25 μl/well) and a mouse monoclonal anti-HNK-1 (anti-MAG) IgM antibody (25 μl/well) at a final dilution of 1:1000. To determine the in vivo efficacy of polymer 86, the assay was performed by incubation of mouse plasma diluted 1:100 (50 μl/well). Both, the mouse monoclonal anti-HNK-1 (anti-MAG) IgM and anti-HNK-1 (anti-MAG) IgM in plasma of immunized BALB/c mice (pre- and post-treatment) were detected with goat anti-mouse IgM HRP conjugate (Sigma Aldrich, A8786) diluted 1:10′000.

[6] = test system: anti-HNK-1 (anti-MAG) IgM antibodies; test: Immunological mouse model for anti-MAG neuropathy; format: in vivo; details: immunized BALB/c mice, 10 mg/kg intravenous, up to 168 h (seven days) after administration
Method: as §3
Six gender matched BALB/c wild type mice at the age of 6 weeks were injected subcutaneously at multiple sites on the lower back with a total of 100 μg of the glycosphingolipids SGPG and SGLPG purified from bovine cauda equina (both glycolipids contain the HNK-1 carbohydrate epitope). The isolation of glycolipids was performed according to a protocol described by Burger et al. (Journal of Immunological Methods 1991, 140, 31-36). […] Mouse plasma samples were analyzed by the above described anti-MAG ELISA.

Q: With GD1b Polymer [Compound 26] as the substance, how does the IC50 [1] read?
A: The IC50 was 313 µM.

Q: Which results are given for GM1a Polymer [Compound 6]?
A: IC50 ([2]; serum P3, GM1a (IgM), dilution 1:50): 375 nM; IC50 ([2]; serum P4, GM1a (IgM), dilution 1:400): 0.0594 nM; IC50 ([3]; serum P21, GM1a (IgG), dilution 1:1'300): 0.219 µM; IC50 ([3]; serum PP IgG Pos., GM1a (IgG), dilution 1:1'200): 28 µM

Q: How did the “neutralization of patient sera directed against GQ1b” value ([4]; sera EK-GCO 1803 (IgG) and P23 (IgG)) turn out when GT1a Polymer [Polymer 34] was run?
A: The value was “neutralized”.

Q: What about the IC50 ([4]; serum EK-GCO 1803, GQ1b/GT1a (IgG), dilution 1:300) of the same substance?
A: The IC50 was 12.5 µM.

Q: And the IC50 ([4]; serum P23, GQ1b/GT1a (IgG), dilution 1:50)?
A: Its IC50 is 348 µM.

Q: For HNK-1 Polymer [Compound 86], which “inhibition of binding of mouse monoclonal anti-HNK-1 IgM to the HNK-1 epitope on MAG” value [5] is on record?
A: Its value is “nanomolar concentrations”.

Q: What about the IC50 ([5]; mouse anti-HNK-1 antibody, HNK-1 (IgM), final dilution 1:1000) of the same substance?
A: Its IC50 is 0.0513 ± 0.0442 µM.

Q: And the “reduction of anti-HNK-1 (anti-MAG) IgM antibody levels” value [6]?
A: Its value is “significantly reduced; also recorded: significant reduction”.
